Tested on: wt mice
Test: Intracerebroventricular infusion of NPY in wt mice, histological/histomorphometric analysis of vertebrae
Format: in vivo
Conditions: 4 month-old wt mice, icv infusion 0.5 μl/hour (75 ng/hr) for 28 days, compared with PBS-treated mice
Method: Bone specimens were processed as described (Ducy et al., 1999, Genes Dev 13, 1025-1036).
Histological analyses were performed on undecalcified sections stained with the von Kossa reagent and counterstained with Kernechtrot (Amling et al., 1999, Endocrinology, 140: 4982-4987). Double labeling technique with calcein has been described (Amling et al., 1999, Endocrinology, 140: 4982-4987). Static and dynamic histomorphometric analyses were performed according to standard protocols (Parfitt et al., 1987, J Bone Min Res, 2:595-610) using the Osteomeasure Analysis System (Osteometrics, Atlanta). Statistical differences between groups (n=4 to 6) were assessed by Student's test.
Animals were anesthetized with avertin and placed on a stereotaxic instrument (Stoelting). The calvaria was exposed and a 0.7 mm hole was drilled upon bregma. A 28-gauge cannula (Brain infusion kit II, Alza) was implanted into the third ventricle according to the following coordinates: midline, −0.3 AP, 3 mm ventral (0 point bregma). The cannula was secure to the skull with cyanoacrylate, and attached with Tygon tubing to an osmotic pump (Alza) placed in the dorsal subcutaneous space of the animal. The rate of delivery was 0.5 μl/hour (75 ng/hr) of NPY (Sigma) or PBS for 28 days.
The issue of whether NPY binding to its receptor would affect bone mass was examined in this example. […]

Which results are given for neuropeptide Y [NPY]?
bone mass: decrease; bone volume: decrease
